# Measurements: PubChem BioAssay AID720624 (Broad Institute, 2013)
# Records with an inconclusive call do not appear.
# Tested on: SNB-75 viability, CellTiter-Glo ATP luminescence, 8-48 h
# Assay: SNB-75 astrocytoma cell viability loss, late-stage follow-up, mechanism study for HRAS target identification, CellTiter-Glo ATP luminescence, several timepoints, dry powder (AID 720624)
SMILES,AC50 (measured here: 8 h treatment) [nM],AC50 (measured here: 24 h treatment) [nM],AC50 (measured here: 48 h treatment) [nM]
C#CCCCC(=O)NCCOCCOCCOc1ccc(N(C(=O)CCl)C(C(=O)NCCc2ccccc2)c2cccs2)cc1Cl (stereo not given),3810,2480,4780
COc1ccc(N(C(=O)CCl)C(C(=O)NCCc2ccccc2)c2cccs2)cc1Cl (stereo not given),298,246,319
COC(=O)c1ccc([C@@H]2c3[nH]c4ccccc4c3C[C@@H](C(=O)OC)N2C(=O)CCl)cc1,479,224,418
CC(C)(C)OC(=O)NCCOCCOCCOc1ccc(N(C(=O)CCl)C(C(=O)NCCc2ccccc2)c2cccs2)cc1Cl (stereo not given),787,398,1030
Cc1onc(C(=O)N2CCN(C(c3ccc(Cl)cc3)c3ccc(Cl)cc3)CC2)c1[N+](=O)[O-],629,490,1050
